Measurements taken from ChEMBL document CHEMBL1201862, “PubChem BioAssay data set” (2004).
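Each compound was tested at five concentrations against cells in 96-well plates for 48 hours. GI50 is the concentration that inhibits growth by half.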 The source made the active and inactive calls. Rule as the data show it: active = GI50 up to about 1.1 µM and inactive = higher.

What was measured:
Experiment in all cases: NCI tumour cell line growth inhibition, 48 h
NCI/ADR-RES = test system: NCI/ADR-RES
UACC-257 = test system: UACC-257
HCT-15 = test system: HCT-15
SK-MEL-28 = test system: SK-MEL-28
HCT-116 = test system: HCT-116
OVCAR-5 = test system: OVCAR-5
SNB-75 = test system: SNB-75
OVCAR-8 = test system: OVCAR-8
EKVX = test system: EKVX
A498 = test system: A498
U-251 = test system: U-251
RPMI-8226 = test system: RPMI-8226
LOX IMVI = test system: LOX IMVI
COLO 205 = test system: COLO 205
KM12 = test system: KM12
SNB-19 = test system: SNB-19
NCI-H460 = test system: NCI-H460
CAKI-1 = test system: CAKI-1
OVCAR-3 = test system: OVCAR-3
UO-31 = test system: UO-31
SN12C = test system: SN12C
DLD-1 = test system: DLD-1
A549 = test system: A549
HCC 2998 = test system: HCC 2998
KM-20L2 = test system: KM-20L2
Malme-3M = test system: Malme-3M
SK-OV-3 = test system: SK-OV-3
XF498 = test system: XF498
NCI-H23 = test system: NCI-H23
HT-29 = test system: HT-29
HOP-18 = test system: HOP-18
CCRF-CEM = test system: CCRF-CEM
DMS-273 = test system: DMS-273
SF-268 = test system: SF-268
SW-620 = test system: SW-620
IGROV-1 = test system: IGROV-1
HOP-92 = test system: HOP-92
RXF 393 = test system: RXF 393
OVCAR-4 = test system: OVCAR-4
SK-MEL-2 = test system: SK-MEL-2
K562 = test system: K562
M19-MEL = test system: M19-MEL
HL-60 = test system: HL-60
NCI-H226 = test system: NCI-H226
UACC-62 = test system: UACC-62
MOLT-4 = test system: MOLT-4
SK-MEL-5 = test system: SK-MEL-5
DMS-114 = test system: DMS-114
SNB-78 = test system: SNB-78
SF-295 = test system: SF-295
NCI-H522 = test system: NCI-H522
HOP-62 = test system: HOP-62
SF-539 = test system: SF-539
MCF7 = test system: MCF7

For `Nc1nc2[nH]c(=O)cnc2c(=O)[nH]1` [ISOXANTHOPTERIN], the GI50 (NCI/ADR-RES) was > 125 µM (inactive), the GI50 (UACC-257) was > 125 µM (inactive) and the GI50 (HCT-15) was > 78.9 µM. The GI50 (SK-MEL-28) was > 125 µM (inactive), the GI50 (HCT-116) was > 125 µM (inactive) and the GI50 (OVCAR-5) was > 99.1 µM (inactive). The GI50 (SNB-75) was > 125 µM (inactive), the GI50 (OVCAR-8) was > 125 µM (inactive) and the GI50 (EKVX) was > 125 µM (inactive). The GI50 (A498) was > 125 µM (inactive), the GI50 (U-251) was > 125 µM (inactive) and the GI50 (RPMI-8226) was > 125 µM (inactive). For the same compound, the GI50 (LOX IMVI) was > 125 µM (inactive), the GI50 (COLO 205) was > 125 µM (inactive) and the GI50 (KM12) was > 125 µM (inactive). For the same compound, the GI50 (SNB-19) was > 125 µM (inactive), the GI50 (NCI-H460) was > 125 µM (inactive) and the GI50 (CAKI-1) was > 125 µM (inactive). For the same compound, the GI50 (OVCAR-3) was > 125 µM (inactive), the GI50 (UO-31) was > 125 µM (inactive) and the GI50 (SN12C) was > 125 µM (inactive). The GI50 (DLD-1) was > 125 µM (inactive), the GI50 (A549) was > 125 µM (inactive) and the GI50 (HCC 2998) was > 125 µM (inactive). The GI50 (KM-20L2) was > 72.4 µM (inactive), the GI50 (Malme-3M) was > 108 µM (inactive) and the GI50 (SK-OV-3) was > 125 µM (inactive). The GI50 (XF498) was 10.6 µM (inactive), the GI50 (NCI-H23) was > 125 µM (inactive) and the GI50 (HT-29) was > 125 µM (inactive). For the same compound, the GI50 (HOP-18) was > 5.81 µM (inactive), the GI50 (CCRF-CEM) was > 125 µM (inactive) and the GI50 (DMS-273) was > 125 µM (inactive). The GI50 (SF-268) was > 125 µM (inactive), the GI50 (SW-620) was > 125 µM (inactive) and the GI50 (IGROV-1) was > 125 µM (inactive). The GI50 (HOP-92) was > 125 µM (inactive), the GI50 (RXF 393) was > 125 µM (inactive) and the GI50 (OVCAR-4) was > 125 µM (inactive). The GI50 (SK-MEL-2) was > 125 µM (inactive), the GI50 (K562) was > 125 µM (inactive) and the GI50 (M19-MEL) was > 85.1 µM (inactive). For the same compound, the GI50 (HL-60) was > 125 µM (inactive), the GI50 (NCI-H226) was > 125 µM (inactive) and the GI50 (UACC-62) was > 125 µM (inactive). The GI50 (MOLT-4) was > 125 µM (inactive), the GI50 (SK-MEL-5) was > 125 µM (inactive) and the GI50 (DMS-114) was > 125 µM (inactive). The GI50 (SNB-78) was > 125 µM (inactive), the GI50 (SF-295) was > 125 µM (inactive) and the GI50 (NCI-H522) was > 19.8 µM (inactive). For the same compound, the GI50 (HOP-62) was > 125 µM (inactive), the GI50 (SF-539) was > 125 µM (inactive) and the GI50 (MCF7) was > 125 µM (inactive).
For `CSc1nc2c(ncn2C2OC(CO)C(O)C(O)C2O)c(=O)n1C` (configuration not stated), the GI50 (NCI/ADR-RES) was > 100 µM (inactive), the GI50 (UACC-257) was > 100 µM (inactive) and the GI50 (HCT-15) was > 100 µM. The GI50 (SK-MEL-28) was > 100 µM (inactive), the GI50 (HCT-116) was > 100 µM (inactive) and the GI50 (OVCAR-5) was > 100 µM (inactive). The GI50 (SNB-75) was > 100 µM (inactive), the GI50 (OVCAR-8) was > 100 µM (inactive) and the GI50 (EKVX) was > 100 µM (inactive). The GI50 (A498) was > 100 µM (inactive), the GI50 (U-251) was > 100 µM (inactive) and the GI50 (RPMI-8226) was > 100 µM (inactive). The GI50 (LOX IMVI) was > 100 µM (inactive), the GI50 (COLO 205) was > 100 µM (inactive) and the GI50 (KM12) was > 100 µM (inactive). For the same compound, the GI50 (SNB-19) was > 100 µM (inactive), the GI50 (NCI-H460) was > 100 µM (inactive) and the GI50 (OVCAR-3) was > 100 µM (inactive). The GI50 (UO-31) was > 100 µM (inactive), the GI50 (SN12C) was > 100 µM (inactive) and the GI50 (DLD-1) was > 100 µM (inactive). For the same compound, the GI50 (A549) was > 100 µM (inactive), the GI50 (HCC 2998) was > 100 µM (inactive) and the GI50 (KM-20L2) was > 100 µM (inactive). The GI50 (Malme-3M) was > 100 µM (inactive), the GI50 (SK-OV-3) was > 100 µM (inactive) and the GI50 (XF498) was > 100 µM (inactive). For the same compound, the GI50 (NCI-H23) was > 100 µM (inactive), the GI50 (HT-29) was > 100 µM (inactive) and the GI50 (HOP-18) was > 88.9 µM (inactive). For the same compound, the GI50 (CCRF-CEM) was > 100 µM (inactive), the GI50 (DMS-273) was > 100 µM (inactive) and the GI50 (SF-268) was > 100 µM (inactive). For the same compound, the GI50 (SW-620) was > 100 µM (inactive), the GI50 (IGROV-1) was > 100 µM (inactive) and the GI50 (HOP-92) was > 100 µM (inactive). The GI50 (RXF 393) was > 100 µM (inactive), the GI50 (OVCAR-4) was > 100 µM (inactive) and the GI50 (SK-MEL-2) was > 100 µM (inactive). The GI50 (K562) was > 100 µM (inactive), the GI50 (M19-MEL) was > 100 µM (inactive) and the GI50 (HL-60) was > 100 µM (inactive). For the same compound, the GI50 (NCI-H226) was > 100 µM (inactive), the GI50 (UACC-62) was > 100 µM (inactive) and the GI50 (MOLT-4) was > 100 µM (inactive). The GI50 (SK-MEL-5) was > 100 µM (inactive), the GI50 (DMS-114) was > 100 µM (inactive) and the GI50 (SNB-78) was > 100 µM (inactive). For the same compound, the GI50 (SF-295) was > 100 µM (inactive), the GI50 (NCI-H522) was > 100 µM (inactive) and the GI50 (HOP-62) was > 100 µM (inactive). The GI50 (SF-539) was > 100 µM (inactive) and the GI50 (MCF7) was > 100 µM (inactive).
For `O=[N+]([O-])c1ccc(/C=C/c2ccc(/N=N/c3ccc(/C=C/c4ccc([N+](=O)[O-])cc4S(=O)(=O)O)c(S(=O)(=O)O)c3)cc2S(=O)(=O)O)c(S(=O)(=O)O)c1`, the GI50 (NCI/ADR-RES) was > 100 µM (inactive), the GI50 (UACC-257) was > 100 µM (inactive) and the GI50 (HCT-15) was > 63.7 µM. For the same compound, the GI50 (SK-MEL-28) was > 100 µM (inactive), the GI50 (HCT-116) was > 100 µM (inactive) and the GI50 (OVCAR-5) was > 100 µM (inactive). The GI50 (SNB-75) was 61.8 µM (inactive), the GI50 (OVCAR-8) was > 100 µM (inactive) and the GI50 (EKVX) was > 100 µM (inactive). The GI50 (A498) was > 100 µM (inactive), the GI50 (U-251) was > 100 µM (inactive) and the GI50 (LOX IMVI) was > 100 µM (inactive). The GI50 (COLO 205) was > 100 µM (inactive), the GI50 (KM12) was > 100 µM (inactive) and the GI50 (NCI-H460) was > 100 µM (inactive). For the same compound, the GI50 (OVCAR-3) was > 87.5 µM (inactive), the GI50 (UO-31) was > 100 µM (inactive) and the GI50 (SN12C) was > 100 µM (inactive). For the same compound, the GI50 (DLD-1) was > 100 µM (inactive), the GI50 (A549) was > 100 µM (inactive) and the GI50 (HCC 2998) was 43.6 µM (inactive). The GI50 (Malme-3M) was > 100 µM (inactive), the GI50 (SK-OV-3) was > 100 µM (inactive) and the GI50 (XF498) was > 78 µM (inactive). The GI50 (NCI-H23) was > 100 µM (inactive), the GI50 (HT-29) was > 100 µM (inactive) and the GI50 (HOP-18) was > 74.6 µM (inactive). For the same compound, the GI50 (CCRF-CEM) was > 100 µM (inactive), the GI50 (DMS-273) was > 71 µM (inactive) and the GI50 (SF-268) was > 100 µM (inactive). The GI50 (SW-620) was > 100 µM (inactive), the GI50 (IGROV-1) was > 100 µM (inactive) and the GI50 (HOP-92) was > 53.1 µM (inactive). The GI50 (RXF 393) was > 100 µM (inactive), the GI50 (OVCAR-4) was > 56.8 µM (inactive) and the GI50 (SK-MEL-2) was > 100 µM (inactive). The GI50 (K562) was > 100 µM (inactive), the GI50 (M19-MEL) was > 100 µM (inactive) and the GI50 (HL-60) was > 100 µM (inactive). The GI50 (NCI-H226) was > 100 µM (inactive), the GI50 (UACC-62) was > 100 µM (inactive) and the GI50 (MOLT-4) was > 100 µM (inactive). For the same compound, the GI50 (SK-MEL-5) was > 100 µM (inactive), the GI50 (DMS-114) was > 100 µM (inactive) and the GI50 (SNB-78) was > 83.6 µM (inactive). The GI50 (SF-295) was > 100 µM (inactive), the GI50 (NCI-H522) was > 100 µM (inactive) and the GI50 (HOP-62) was > 100 µM (inactive). For the same compound, the GI50 (SF-539) was > 100 µM (inactive) and the GI50 (MCF7) was > 100 µM (inactive).
